Data as given in patent publication US7138411B2, “Substituted benzopyran derivatives for the treatment of inflammation” (G.D. Searle & Co., priority 1997, dated 2006).

Key:
COX-2 [1] = target: T1, COX-2 (UniProt P35354); assay: Fast assay for COX-2 activity (PGE2 ELISA); assay type: biochemical, human or murine; conditions: fast assay: 10 min pre-incubation at 25° C., reaction stopped after two minutes, pH 7.5
T1 sequence (P35354 1-604): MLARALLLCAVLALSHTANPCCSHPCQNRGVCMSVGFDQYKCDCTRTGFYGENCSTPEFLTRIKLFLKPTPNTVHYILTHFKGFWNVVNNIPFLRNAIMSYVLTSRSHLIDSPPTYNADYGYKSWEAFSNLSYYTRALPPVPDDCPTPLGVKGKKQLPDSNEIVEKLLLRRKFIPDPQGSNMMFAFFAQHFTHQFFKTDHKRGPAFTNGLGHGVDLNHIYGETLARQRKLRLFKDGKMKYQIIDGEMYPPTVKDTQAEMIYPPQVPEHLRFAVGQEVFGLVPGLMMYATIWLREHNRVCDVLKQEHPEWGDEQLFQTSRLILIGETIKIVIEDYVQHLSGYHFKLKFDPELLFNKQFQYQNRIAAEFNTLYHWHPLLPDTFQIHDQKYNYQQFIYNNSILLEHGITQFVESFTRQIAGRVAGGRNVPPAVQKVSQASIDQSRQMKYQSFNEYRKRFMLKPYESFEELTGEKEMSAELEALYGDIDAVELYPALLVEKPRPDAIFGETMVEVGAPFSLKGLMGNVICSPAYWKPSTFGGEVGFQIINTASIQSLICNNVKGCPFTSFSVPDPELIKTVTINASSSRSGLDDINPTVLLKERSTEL

COX-2 [2] = target: T1, COX-2; assay: Assay for COX-2 activity (PGE2 ELISA); conditions: read-out: COX-2 IC50; 10–20 minutes pre-incubation, reaction stopped after ten minutes, pH 8.0
Description: (§1) Recombinant baculoviruses were isolated by transfecting 4 μg of baculovirus transfer vector DNA into SF9 insect cells (2×10^8) along with 200 ng of linearized baculovirus plasmid DNA by the calcium phosphate method. […] Recombinant viruses were purified by three rounds of plaque purification and high titer (10^7–10^8 pfu/mL) stocks of virus were prepared. For large scale production, SF9 insect cells were infected in 10 liter fermentors (0.5×10^6/mL) with the recombinant baculovirus stock such that the multiplicity of infection was 0.1. […] The homogenate was centrifuged at 10,000×G for 30 minutes, and the resultant supernatant was stored at −80° C. before being assayed for COX activity.
Assay for COX-1 and COX-2 Activity
(§2) COX activity was assayed as PGE2 formed/μg protein/time using an ELISA to detect the prostaglandin released. CHAPS-solubilized insect cell membranes containing the appropriate COX enzyme were incubated in a potassium phosphate buffer (50 mM, pH 8.0) containing epinephrine, phenol, and heme with the addition of arachidonic acid (10 μM). […] The PGE2 formed was measured by standard ELISA technology (Cayman Chemical).

COX-1 = COX-1 (UniProt P23219); assay: Assay for COX-1 activity (PGE2 ELISA); conditions: read-out: COX-1 IC50; 10–20 minutes pre-incubation, reaction stopped after ten minutes, pH 8.0
Description: as §1
Assay for COX-1 and COX-2 Activity
as §2

Compound | IC50 (COX-2 [1]) [µM] | IC50 (COX-2 [2]) [µM] | IC50 (COX-1) [µM] | melting point [°C]
O=C(O)C1=Cc2cc(Cl)ccc2O[C@@H]1C(F)(F)F [Example 66, (S)-6-Chloro-2-trifluoromethyl-2H-1-benzopyran-3-carboxylic acid] | 82 | < 0.1 | 16.9 | –
Cc1cc(Br)c2c(c1)C=C(C(=O)O)C(C(F)(F)F)O2 (stereo not shown) [Example 44, 8-Bromo-6-methyl-2-trifluoromethyl-2H-1-benzopyran-3-carboxylic acid] | 0.3 | 21 | > 100 | 237 to 238
COc1ccc(Oc2cc3c(cc2Cl)C=C(C(=O)O)C(C(F)(F)F)O3)cc1 (stereo not shown) [Example 183, 6-Chloro-7-(4-methoxyphenoxy)-2-(trifluoromethyl)-2H-1-benzopyran-3-carboxylic acid] | < 0.1 | < 0.1 | 4.1 | 213.2 to 214.3
C#Cc1ccc2c(c1)C=C(C(=O)O)C(C(F)(F)F)N2 (stereo not shown) [Example 210, 1,2-Dihydro-6-ethynyl-2-(trifluoromethyl)-3-quinolinecarboxylic acid] | 1.7 | 10 | > 100 | 259 to 268
O=C(O)C1=Cc2cc(Cl)c(Oc3ccccn3)cc2OC1C(F)(F)F (stereo not shown) [Example 202, 6-Chloro-7-[2-pyridinyloxy]-2-(trifluoromethyl)-2H-1-benzopyran-3-carboxylic acid] | – | < 0.1 | 42.8 | 234.2 to 235.4
COc1cc(Cl)c2c(c1)C=C(C(=O)O)C(C(F)(F)F)O2 (stereo not shown) [Example 40, 8-Chloro-6-methoxy-2-trifluoromethyl-2H-1-benzopyran-3-carboxylic acid] | – | – | 43 | 204.5 to 206.9
COc1ccc(Oc2ccc3c(c2)C=C(C(=O)O)C(C(F)(F)F)O3)cc1 (stereo not shown) [Example 7, 6-(4-Methoxyphenoxy)-2-(trifluoromethyl)-2H-1-benzopyran-3-carboxylic acid] | – | < 0.1 | 1 | 181.7 to 182.9
O=C(O)C1=Cc2cc(C(F)(F)F)ccc2OC1C(F)(F)F (stereo not shown) [Example 82, 2,6-Bis(trifluoromethyl)-2H-1-benzopyran-3-carboxylic acid] | – | – | 5.6 | –
O=C(O)C1=Cc2cc(C(=O)Cc3ccccc3)ccc2OC1C(F)(F)F (stereo not shown) [Example 59, 6-Phenylacetyl-2-trifluoromethyl-2H-1-benzopyran-3-carboxylic acid] | 43 | – | – | 159 to 164
O=C(O)C1=Cc2cc(OC(F)(F)F)ccc2O[C@@H]1C(F)(F)F [Example 67, (S)-6-Trifluoromethoxy-2-trifluoromethyl-2H-1-benzopyran-3-carboxylic acid] | – | – | 6.7 | –
O=C(O)C1=Cc2cc(S(=O)(=O)NCc3ccccc3)cc(Cl)c2OC1C(F)(F)F (stereo not shown) [Example 57, 8-Chloro-6-[[(phonylmethyl)amino]sulfonyl]-2-trifluoromethyl-2H-1-benzopyran-3-carboxylic acid] | 21 | 21 | > 100 | –
CC(C)(C)NS(=O)(=O)c1ccc2c(c1)C=C(C(=O)O)C(C(F)(F)F)O2 (stereo not shown) [Example 54, 6-[(1,1-Dimethylethyl)aminosulfonyl]-2-trifluoromethyl-2H-1-benzopyran-3-carboxylic acid] | 19 | – | – | 229.3 to 233.5
CCc1cc(Cl)cc2c1OC(C(F)(F)F)C(C(=O)O)=C2 (stereo not shown) [Example 29, 6-Chloro-8-ethyl-2-trifluoromethyl-2H-1-benzopyran-3-carboxylic acid] | < 0.1 | – | – | 197.2 to 199.1
Cc1cc2c(cc1Cl)C=C(C(=O)O)C(C(F)(F)F)S2 (stereo not shown) [Example 152, 6-Chloro-7-methyl-2-(trifluoromethyl)-2H-1-benzothiopyran-3-carboxylic acid] | < 0.1 | < 0.1 | 10 | –
O=C(O)C1=Cc2cc(SC(F)(F)F)ccc2OC1C(F)(F)F (stereo not shown) [Example 91, 2-(Trifluoromethyl)-6-[(trifluoromethyl)thio]-2H-1-benzopyran-3-carboxylic acid] | < 0.1 | 0.2 | 36 | –
O=C(O)C1=Cc2cccc(-c3ccccc3)c2OC1C(F)(F)F (stereo not shown) [Example 21, 8-Phenyl-2-trifluoromethyl-2H-1-benzopyran-3-carboxylic acid] | 11 | – | – | 171.6 to 175
O=C(O)C1=Cc2cc(Cl)c(Oc3ccc([N+](=O)[O-])cc3)cc2OC1C(F)(F)F (stereo not shown) [Example 203, 6-Chloro-7-(4-nitrophenoxy)-2-(trifluoromethyl)-2H-1-benzopyran-3-carboxylic acid] | < 0.1 | – | – | 246.4 to 248.3
CCc1cc2c(cc1Cl)C=C(C(=O)O)C(C(F)(F)F)O2 (stereo not shown) [Example 27, 6-Chloro-7-ethyl-2-trifluoromethyl-2H-1-benzopyran-3-carboxylic acid] | 67 | – | – | 170.7 to 172.1
CSc1ccc2c(c1)C=C(C(=O)O)C(C(F)(F)F)O2 (stereo not shown) [Example 2, 6-(Methylthio)-2-(trifluoromethyl)-2H-1-benzopyran-3-carboxylic acid] | < 0.1 | < 0.1 | 5 | –
O=C(O)C1=Cc2c(Cl)cc(Cl)cc2OC1C(F)(F)F (stereo not shown) [Example 18, 5,7-Dichloro-2-trifluoromethyl-2H-1-benzopyran-3-carboxylic acid] | 12 | – | – | 190.1 to 191.2
COc1cc(Br)cc2c1OC(C(F)(F)F)C(C(=O)O)=C2 (stereo not shown) [Example 47, 6-Bromo-8-methoxy-2-trifluoromethyl-2H-1-benzopyran-3-carboxylic acid] | 1.9 | 1.7 | > 100 | –
O=C(O)C1=Cc2cc(Cl)c(Oc3cccc(Cl)n3)cc2OC1C(F)(F)F (stereo not shown) [Example 199, 6-Chloro-7-[(6-chloro-2-pyridinyl)oxy]-2-(trifluoromethyl)-2H-1-benzopyran-3-carboxylic acid] | < 0.1 | – | – | 226.4 to 227.4
O=C(O)C1=Cc2ccc(-c3ccccc3)cc2OC1C(F)(F)F (stereo not shown) [Example 26, 7-Phenyl-2-trifluoromethyl-2H-1-benzopyran-3-carboxylic acid] | > 100 | – | – | 209.4 to 211.7
O=C(O)C1=Cc2cc(F)cc(Br)c2OC1C(F)(F)F (stereo not shown) [Example 43, 8-Bromo-6-fluoro-2-trifluoromethyl-2H-1-benzopyran-3-carboxylic acid] | 99 | – | – | > 300
O=C(O)C1=Cc2cc(C(=O)c3ccccc3)ccc2OC1C(F)(F)F (stereo not shown) [Example 96, 6-Benzoyl-2-(trifluoromethyl)-2H-1-benzopyran-3-carboxylic acid] | 0.2 | 0.3 | – | 269.8 to 270.8
O=C(O)C1=Cc2cccc(Cl)c2OC1C(F)(F)F (stereo not shown) [Example 14, 8-Chloro-2-trifluoromethyl-2H-1-benzopyran-3-carboxylic acid] | > 100 | – | – | 224.5 to 225.6
O=C(O)C1=Cc2cc(Br)ccc2OC1C(F)(F)F (stereo not shown) [Example 13, 6-Bromo-2-trifluoromethyl-2H-1-benzopyran-3-carboxylic acid] | 0.3 | – | – | 189.6 to 190.9
